{
  "source": "patent US10912780B2",
  "about": "“Heterocyclic compounds useful as anti-bacterial agents and method for production thereof” (Bugworks Research, Inc., priority 2017, dated 2021)",
  "key": {"[1]": {"system": "E. cloacae clinical strains", "assay": "Antibacterial susceptibility studies (MIC50 and MIC90) with clinical strains, CLSI guidelines", "type": "cell-based"}, "[2]": {"system": "E. coli [ATCC25922]", "assay": "Urinary tract infection (UTI) rat model", "type": "in vivo", "conditions": "for MEAN ± SD (Log10 CFU/g kidneys) / Mean Log10 CFU/g kidney reduction (wrt 4 h PI control: 6.03 Log10 CFU/g kidneys) / MEAN ± SD (Log 10 CFU/ml Bladder) / Mean Log10 CFU/ml Bladder reduction (wrt 4 h PI control: 6.49 CFU/ml Bladder) / Log10 CFU/g (Left Kidney) / Log10 CFU/g (Right Kidney) / Log 10 CFU/ml Bladder: i.v., 1 h infusion, rat UTI, 24 h post infection; for Log10 CFU/g (Left Kidney) / Log10 CFU/g (Right Kidney) / Log 10 CFU/ml Bladder: individual animals", "protocol": "The purpose of this study is to assess the efficacy of Example 15 against E. coli [ATCC25922] following single dose intravenous infusion doses of 3, 10 and 30 mg/kg in a Urinary Tract Infection Rat Model\nPrior to the start of the infection process all animals were divided into different groups. All grouped cages of animals were carried to a procedure room, close to a biological safety cabinet. All infections were conducted in a biological safety cabinet, with appropriate personnel protection. Animals were anaesthetized by intraperitoneal injection of ketamine & xylazine (60+10 mg/kg i.p.) cocktail. Once the animals were in a sufficiently deep plane of anaesthesia as monitored by pedal reflex, the abdominal wall of each rat was shaved with electric clippers and the skin was cleansed with 10% povidine iodine. After a 1.5 to 2 cm lower abdominal wall incision, the abdominal wall muscles were separated with blunt dissection. […] After the replacement of the bladder to its original location, the abdominal muscles were approximated using suture and the skin was closed. The wounds were cleansed using 10% povidine iodine.\nThe IV formulation vehicle used was 10% of L-ascorbic acid in fresh MilliQ water (w/v) with pH adjusted to 4.0 with 1N Sodium hydroxide solution (w/v), and the dose volume was 10 mL/kg. Meropenem was prepared in MilliQ water and the pH of solution was adjusted to 4.5 using HCl. Four hours post infection, animals were dosed intravenously, as single doses (for test compounds), as a constant rate infusion, under Ketamine 60 mg/kg IP+Xylazine 10 mg/kg IP anesthesia, at a dose volume of 10 ml/kg, at the rate of 0.03 ml/min. The dose levels of the test compounds were 3, 10 and 30 mg/kg. Meropenem was administered as a single bolus dose at a dose volume of 5 ml/kg. All the animals were sacrificed at 24 h post infection, as specified in experimental design, by an overdose of CO2 in an appropriate exposure chamber. The group 1 animals were sacrificed at 4 h post infection.\nThe euthanized animals were dipped into 70% ethanol for surface decontamination. The organs were removed aseptically; the bladder was cut away near the urethra, and the kidneys were removed by blunt dissection to avoid bleeding. The bladder and each kidney separately were be homogenized in PBS. The CFU per milliliter homogenate of bladder, & kidney were determined after 18 to 24 h of incubation at 37° C."}, "[3]": {"assay": "Stability of IV formulation at room temperature", "type": "physicochemical", "conditions": "IV formulation in 10% L-ascorbic acid, pH~4", "protocol": "Procedure: Weighed appropriate amount of the Example 15 to be tested and dissolved in 1 ml of the 10% ascorbic acid solution. (Vortex for a few seconds if the compound doesn't dissolve instantly). Sonicated the compound solution at room temperature for 5 minutes using a bath sonicator to obtain a visually clear solution. The above prepared solution was pH adjusted to pH˜4 with 1N NaOH solution (w/v) with sonication (final Formulation pH˜4)."}, "[4]": {"system": "Acinetobacter baumannii ATCC 19606", "assay": "Minimum Inhibitory Concentration (MIC) in LB media;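 note: twofold compound dilutions from DMSO stocks in LB broth microplates, overnight incubation at 37 °C, growth read by absorbance at 600 nm, with DMSO and sterility controls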", "type": "cell-based", "conditions": "Acinetobacter baumannii, ATCC19606"}, "[5]": {"system": "K. pneumoniae clinical strains", "assay": "Antibacterial susceptibility studies (MIC50 and MIC90) with clinical strains, CLSI guidelines", "type": "cell-based"}, "[6]": {"system": "K. pneumoniae [ATCC13883]", "assay": "Neutropenic thigh infection model in rat", "type": "in vivo"}, "[7]": {"conditions": "Enterobacter cloacae, E. cloacae clinical strains (88 strains)"}, "[8]": {"conditions": "3 mg/kg, i.v., 1 h infusion, neutropenic rat, 10 hr post infection"}},
  "note": "Values joined by “and” are separate entries in the source; they are usually repeats but may differ in a detail not shown here. Equal values may be shown once.",
  "data": [
    {"smiles": "Cn1c(=O)ccc2ccc(F)c(CCNC[C@H]3CN(c4cnc5c(n4)NC(=O)CO5)C(=O)O3)c21", "note": "[Example 15, (S)-6-(5-(((2-(7-fluoro-1-methyl-2-oxo-1,2-dihydroquinolin-8-yl)ethyl)amino)methyl)-2-oxooxazolidin-3-yl)-2H-pyrazino[2,3-b][1,4]oxazin-3(4H)-one]", "values": [
      {"measurement": "MIC50", "setting": "[1]; [7]", "value": 0.25, "unit": "mg/L"},
      {"measurement": "MIC90", "setting": "[1]; [7]", "value": 1, "unit": "mg/L"},
      {"measurement": "Minimum", "setting": "[1]; lowest MIC among E. cloacae clinical strains (88 strains), no unit in this line", "value": 0.03},
      {"measurement": "MEAN ± SD (Log10 CFU/g kidneys)", "setting": "[2]; 3 mg/kg", "value": "7.13 ± 0.62", "unit": "Log10 CFU/g kidneys"},
      {"measurement": "Mean Log10 CFU/g kidney reduction (wrt 4 h PI control: 6.03 Log10 CFU/g kidneys)", "setting": "[2]; 3 mg/kg", "value": "−1.1", "unit": "Log10 CFU/g kidneys"},
      {"measurement": "MEAN ± SD (Log 10 CFU/ml Bladder)", "setting": "[2]; 3 mg/kg", "value": "7.01 ± 0.23", "unit": "Log 10 CFU/ml"},
      {"measurement": "Mean Log10 CFU/ml Bladder reduction (wrt 4 h PI control: 6.49 CFU/ml Bladder)", "setting": "[2]; 3 mg/kg", "value": "−0.52", "unit": "Log10 CFU/ml"},
      {"measurement": "MEAN ± SD (Log10 CFU/g kidneys)", "setting": "[2]; 10 mg/kg", "value": "5.82 ± 0.94", "unit": "Log10 CFU/g kidneys"},
      {"measurement": "Mean Log10 CFU/g kidney reduction (wrt 4 h PI control: 6.03 Log10 CFU/g kidneys)", "setting": "[2]; 10 mg/kg", "value": 0.21, "unit": "Log10 CFU/g kidneys"},
      {"measurement": "MEAN ± SD (Log 10 CFU/ml Bladder)", "setting": "[2]; 10 mg/kg", "value": "5.85 ± 0.27", "unit": "Log 10 CFU/ml"},
      {"measurement": "Mean Log10 CFU/ml Bladder reduction (wrt 4 h PI control: 6.49 CFU/ml Bladder)", "setting": "[2]; 10 mg/kg", "value": 0.64, "unit": "Log10 CFU/ml"},
      {"measurement": "MEAN ± SD (Log10 CFU/g kidneys)", "setting": "[2]; 30 mg/kg", "value": "4.46 ± 0.52", "unit": "Log10 CFU/g kidneys"},
      {"measurement": "Mean Log10 CFU/g kidney reduction (wrt 4 h PI control: 6.03 Log10 CFU/g kidneys)", "setting": "[2]; 30 mg/kg", "value": 1.57, "unit": "Log10 CFU/g kidneys"},
      {"measurement": "MEAN ± SD (Log 10 CFU/ml Bladder)", "setting": "[2]; 30 mg/kg", "value": "4.80 ± 0.17", "unit": "Log 10 CFU/ml"},
      {"measurement": "Mean Log10 CFU/ml Bladder reduction (wrt 4 h PI control: 6.49 CFU/ml Bladder)", "setting": "[2]; 30 mg/kg", "value": 1.69, "unit": "Log10 CFU/ml"},
      {"measurement": "Log10 CFU/g (Left Kidney)", "setting": "[2]; 3 mg/kg", "value": "6.81 Log10 CFU/g and 6.44 Log10 CFU/g and 6.48 Log10 CFU/g"},
      {"measurement": "Log10 CFU/g (Right Kidney)", "setting": "[2]; 3 mg/kg", "value": "7.51 Log10 CFU/g and 7.68 Log10 CFU/g and 7.86 Log10 CFU/g"},
      {"measurement": "Log 10 CFU/ml Bladder", "setting": "[2]; 3 mg/kg", "value": "5.54 Log 10 CFU/ml and 6.79 Log 10 CFU/ml and 7.00 Log 10 CFU/ml"},
      {"measurement": "Log10 CFU/g (Left Kidney)", "setting": "[2]; 10 mg/kg", "value": "4.69 Log10 CFU/g and 5.68 Log10 CFU/g and 4.80 Log10 CFU/g"},
      {"measurement": "Log10 CFU/g (Right Kidney)", "setting": "[2]; 10 mg/kg", "value": "6.66 Log10 CFU/g and 6.13 Log10 CFU/g and 6.97 Log10 CFU/g"},
      {"measurement": "Log 10 CFU/ml Bladder", "setting": "[2]; 10 mg/kg", "value": "5.54 Log 10 CFU/ml and 5.97 Log 10 CFU/ml and 6.05 Log 10 CFU/ml"},
      {"measurement": "Log10 CFU/g (Left Kidney)", "setting": "[2]; 30 mg/kg", "value": "4.98 Log10 CFU/g and 3.84 Log10 CFU/g and 4.12 Log10 CFU/g"},
      {"measurement": "Log10 CFU/g (Right Kidney)", "setting": "[2]; 30 mg/kg", "value": "4.66 Log10 CFU/g and 4.05 Log10 CFU/g and 5.11 Log10 CFU/g"},
      {"measurement": "Log 10 CFU/ml Bladder", "setting": "[2]; 30 mg/kg", "value": "4.61 Log 10 CFU/ml and 4.91 Log 10 CFU/ml and 4.90 Log 10 CFU/ml"},
      {"measurement": "efficacy compared to the 4 h PI control (in words)", "setting": "[2]; rat UTI model, 3 mg/kg", "value": "bacteriostatic"},
      {"measurement": "efficacy with respect to 4 h PI control (in words)", "setting": "[2]; rat UTI model, 10 and 30 mg/kg", "value": "significant dose dependent"},
      {"measurement": "efficacy versus standard drug (in words)", "setting": "[2]; rat UTI model, similar dose (30 mg/kg)", "value": "comparable to standard drug meropenem"},
      {"measurement": "IV formulation stable at room temperature", "setting": "[3]", "value": "more than 24 hours"},
      {"measurement": "MIC", "setting": "[4]", "value": 0.06, "unit": "mg/L"},
      {"measurement": "MIC ATCC13883", "setting": "[5]; K. pneumoniae reference strain ATCC13883, no unit in this line", "value": 0.03, "unit": "mg/L"},
      {"measurement": "MIC50", "setting": "[5]; Klebsiella pneumoniae", "value": 0.5, "unit": "mg/L"},
      {"measurement": "MIC90", "setting": "[5]; Klebsiella pneumoniae", "value": 1, "unit": "mg/L"},
      {"measurement": "Minimum", "setting": "[5]; lowest MIC among K. pneumoniae clinical strains (211 strains; Example 15: 176), no unit in this line", "value": 0.06},
      {"measurement": "MEAN ± SD (Log 10 CFU/g thigh)", "setting": "[6]; [8]", "value": "4.10 ± 0.46", "unit": "Log 10 CFU/g thigh"},
      {"measurement": "Mean Log10CFU/g thigh reduction (wrt 2 h PI control: 4.72 Log10CFU/g thigh)", "setting": "[6]; [8]", "value": 0.62, "unit": "Log10CFU/g thigh"},
      {"measurement": "Mean Log10CFU/g thigh reduction (wrt 2 h PI control: 4.72 Log10CFU/g thigh)", "setting": "[6]; 10 mg/kg, i.v., 1 h infusion, neutropenic rat, 10 hr post infection", "value": 1.81, "unit": "Log10CFU/g thigh"},
      {"measurement": "Log 10 CFU/g thigh", "setting": "[6]; individual animals, 3 mg/kg, i.v., 1 h infusion, neutropenic rat, 10 hr post infection", "value": "4.1 Log 10 CFU/g thigh and 4.56 Log 10 CFU/g thigh and 3.65 Log 10 CFU/g thigh"},
      {"measurement": "efficacy compared to the 2 h PI control (in words)", "setting": "[6]; rat thigh model, 3 mg/kg", "value": "bacteriostatic"}
    ]}
  ]
}
